{"source": "BindingDB's records for doi:10.1016/j.bmc.2020.115818", "about": "(Taisho Pharmaceutical, 2020)", "assay": "Inhibition of F protein in Respiratory syncytial virus A2 infected in HepG2 cells assessed as reduction in virus-induced cytopathic effect incubated for 4 days by XTT assay", "data": [{"smiles": "Cc1ccc2c(c1)C(=O)N1CCCC[C@H]1c1cc3nc([C@H]4C[C@H](O)C4)cc(n3n1)N(C)CCNC(=O)CO2", "values": [{"measurement": "EC50", "result": 0.77, "unit": "nM"}]}]}
